Measured values taken from PMC10473160 (Cancer Research Communications, 2023).

How the values were obtained:
NCI-H1703 cells [1] = test: Cell Titer Glo cellular cytotoxicity assay, NCI-H1703; format: cell-based; settings: Homo sapiens, NCI-H1703, 144 h; H1703, 6 days, representative experiment, unit not readable in the picture; read-out: IC50 (Fig. 3B)
Experimental: (§1) Cells were seeded in 384-well plates at a density of 300–500 cells per well (depending upon the doubling time for each cell line) with 40 μL of media per well using a multidrop combi cell dispenser (Thermo Fisher Scientific). The cells were incubated at room temperature for 30 minutes to minimize edge effects. The next day, the cells were treated with drugs of interest at various concentrations using a D300e digital dispenser (Tecan). Following treatment, the cells were cultured at 37°C for 6 days. On day 6 after treatment initiation, the plates and Cell Titer Glo (CTG; Promega; PRG9243) were incubated at room temperature (protected from light) for 1 hour to reach equilibrium. After incubation, half of the CTG volume was added to one volume of cell culture medium in each well. The plates were then shaken for 30 seconds to induce cell lysis. The cells were then incubated at room temperature for 12 minutes protected from light to stabilize the luminescence signal. The luminescent cell viability was measured using an EnVision plate reader (PerkinElmer). For cell viability, the data were analyzed using Excel (Microsoft) and GraphPad Prism (RRID:SCR_002798; Dotmatics). […] For synergy, the data were analyzed using Excel, SynergyFinder ([28]), and Combenefit ([29]). […]

A549 cells = test: CTG combination synergy (Bliss) with ZL-2201, A549; format: cell-based, human; settings: 6 days of combination treatment
Experimental: Cells were seeded in 384-well plates at a density of 300–500 cells per well (depending upon the doubling time for each cell line) with 40 μL of media per well using a multidrop combi cell dispenser (Thermo Fisher Scientific). The cells were incubated at room temperature for 30 minutes to minimize edge effects. The next day, the cells were treated with drugs of interest at various concentrations using a D300e digital dispenser (Tecan). Following treatment, the cells were cultured at 37°C for 6 days. On day 6 after treatment initiation, the plates and Cell Titer Glo (CTG; Promega; PRG9243) were incubated at room temperature (protected from light) for 1 hour to reach equilibrium. After incubation, half of the CTG volume was added to one volume of cell culture medium in each well. The plates were then shaken for 30 seconds to induce cell lysis. […] The luminescent cell viability was measured using an EnVision plate reader (PerkinElmer). For cell viability, the data were analyzed using Excel (Microsoft) and GraphPad Prism (RRID:SCR_002798; Dotmatics). The data were first transformed to a log scale on the X-axis, then transformed values were normalized, and finally, normalized values were fitted using a nonlinear regression curve fit. For synergy, the data were analyzed using Excel, SynergyFinder ([28]), and Combenefit ([29]). […]

NCI-H1703 cells [2] = test: High-content imaging assay (γH2AX, phospho-histone H3, cleaved caspase 3); format: cell-based, human; settings: single-agent treatment, 72 hours
Experimental: Cells were seeded in 96-well plates at a density of 10,000 cells per well with 100 μL of media per well. The cells were cultured overnight. The next day, the cells were treated with doxorubicin (0.006 μmol/L), ZL-2201 (0.1, 0.3, 0.5, 1, and 3.6 μmol/L), and a combination of doxorubicin and ZL-2201 for the indicated times. The cells were washed in PBS and fixed by adding Cytofix/Perm buffer (BD; 554714) at room temperature for 20 minutes. Cells were washed with Perm wash buffer and blocked with Perm wash buffer and 3% FBS at room temperature for 1 hour. The cells were then incubated with primary antibodies against γH2AX-Ser139 (RRID:AB_309864; Millipore; 05-636), pPH3 (Ser10; 6G3; RRID:AB_331748; Cell Signaling Technology; 9706) and cleaved caspase 3 (Asp175; 5A1E; RRID:AB_2070042; Cell Signaling Technology; 9664) overnight at 4°C. Cells were washed the following day and incubated with secondary antibodies (Alexa Fluor 488; Invitrogen; A32723 or A32731 and Alexa Fluor 647; A32733) at room temperature for 45 minutes in the dark. The cells were washed and stained with Hoescht (Thermo Fisher Scientific; H3570) at room temperature for 15 minutes in the dark. Images were obtained and quantified using the ImageXpress Micro Confocal High-Content Imaging System (Molecular Devices). A total of 16 fields were obtained per image for each timepoint and treatment groups.

NCI-H1703 cells [3] = settings: NCI-H1703, Bliss, 6 days of combination treatment
Experimental: as §1

COc1cccc2c1C(=O)c1c(O)c3c(c(O)c1C2=O)C[C@@](O)(C(=O)CO)C[C@@H]3O[C@H]1C[C@H](N)[C@H](O)[C@H](C)O1 [doxorubicin]
IC50 (NCI-H1703 cells [1]): 4 nM
synergy score in combination with ZL-2201 (A549 cells): > 30
cleaved caspase 3 (apoptosis) level (NCI-H1703 cells [2]): did not alter
phospho-histone H3 (mitotic index) level (NCI-H1703 cells [2]): did not alter
synergy score in combination with ZL-2201 (NCI-H1703 cells [3]): > 30
